We go through one compound from article PMC12446476 (Nature Communications, 2025).

For this assay, the system named is N. gonorrhoeae. Put plainly: MIC determination, broth microdilution (baseline for liquid-based assays). It is filed as cell-based, Neisseria gonorrhoeae. The settings on record: for MIC: Neisseria gonorrhoeae. From the text: The 2024 WHO N. gonorrhoeae reference strains were used for quality control. Only whole MIC doubling dilutions are reported. Clinical breakpoints or the epidemiological cutoff (ECOFF, to indicate azithromycin resistance) from EUCAST (v14.0, https://www.eucast.org/clinical_breakpoints) were used to classify isolates as antimicrobial susceptible or resistant. […] Two times the standard inoculum defined by CLSI was used to establish consistent growth in untreated control samples for some strains. In vitro time-kill assays were performed according to CLSI guidelines[65] using Columbia Broth (BD Difco) supplemented with 1% IsoVitaleX Enrichment (BD). Viable bacterial counts were generated by plating 10-fold serially diluted samples on GC agar plates containing 1% IsoVitaleX Enrichment (BD).

Usually MIC stands for the least concentration at which growth counts as inhibited.

Values after ≈ are worked out from the molar mass of the structure shown. Read-outs that look alike come from different tables or passages of the source.

For `Cc1c(CN(C)C(=O)/C=C/c2cnc3c(c2)N[C@H](C)[C@H](O)C(=O)N3)oc2ccccc12` [Debio 1453], the “MIC, broth microdilution” value by setting is: (6804) 0.06 µg/mL (≈ 0.143 µM); (AR Bank0175) 0.06 µg/mL (≈ 0.143 µM); (AR Bank0179) 0.06 µg/mL (≈ 0.143 µM). Also, the MIC (ATCC49226, read-out: MIC, broth microdilution, ATCC 49226) amounted to 0.125 µg/mL (≈ 0.297 µM); the MIC (ATCC700825, ATCC 700825, read-out: MIC, broth microdilution) stood at 0.03 µg/mL (≈ 0.0713 µM); the MIC (read-out: MIC, broth microdilution, WHO V) came out at 0.125 µg/mL (≈ 0.297 µM); the MIC (read-out: MIC, broth microdilution, WHO X) was 0.125 µg/mL (≈ 0.297 µM); the MIC (read-out: MIC, broth microdilution, WHO Y) is 0.125 µg/mL (≈ 0.297 µM); the MIC (read-out: MIC, broth microdilution, WHO Z) is 0.125 µg/mL (≈ 0.297 µM). Moreover, the MIC (6926, read-out: MIC, broth microdilution) came out at 0.06 µg/mL (≈ 0.143 µM).
